Values after ≈ are worked out from the molar mass of the structure shown.
Experiments:
[1] = biological target: T1, glucocerebrosidase (Gcase) (Homo sapiens, UniProt P04062); test: Glucocerebrosidase (Gcase) activation assay, 4-methylumbelliferyl-beta-D-glucopyranoside substrate, fluorescence readout; assay type: biochemical; conditions: for activation at 0.1 µM: read-out: Percent Gcase Activation, 0.1 μM Test Compound; for activation at 1 µM / Percent Gcase Activation, 1 μM Test Compound: test compound at 1.0 μM; for activation at 1 µM: read-out: Percent Gcase Activation, 1 μM Test Compound
T1 construct: micellar solution containing 10 nM GCase and 100 nM saposin C
T1 sequence (P04062 40-536): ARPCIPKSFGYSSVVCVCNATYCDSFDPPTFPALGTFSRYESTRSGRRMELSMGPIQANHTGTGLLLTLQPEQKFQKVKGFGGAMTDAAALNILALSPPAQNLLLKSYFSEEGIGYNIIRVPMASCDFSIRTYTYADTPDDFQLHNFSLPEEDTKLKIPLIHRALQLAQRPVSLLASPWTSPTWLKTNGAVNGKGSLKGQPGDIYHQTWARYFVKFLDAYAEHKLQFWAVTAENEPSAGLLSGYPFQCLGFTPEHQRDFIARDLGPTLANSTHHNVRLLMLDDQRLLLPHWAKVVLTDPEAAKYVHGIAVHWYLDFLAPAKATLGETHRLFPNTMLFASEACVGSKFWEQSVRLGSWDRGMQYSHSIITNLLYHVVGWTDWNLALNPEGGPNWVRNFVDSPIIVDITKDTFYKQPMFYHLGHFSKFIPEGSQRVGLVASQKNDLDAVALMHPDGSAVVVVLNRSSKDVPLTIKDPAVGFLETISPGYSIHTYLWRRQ
Summary of the method: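 10 nM GCase with 100 nM saposin C pre-incubated 30 min with compound in pH 4.7 phosphate/citrate PS/triton micelles, then mixed 1:1 with 2 mM 4-methylumbelliferyl-β-glucoside micellar substrate (stock level). Run 15 min at room temperature, stopped at pH 12.5; fluorescence 365/440 nm. Screened at 1.0 and 0.1 μM; 8-point curves from 5 μM.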

[2] = Compound solubility in water; conditions: in water; for solubility: water, Compound Solubility in Water

activation at 0.1 µM ([1]; test compound at 0.1 μM) [%] | activation at 1 µM [1] [%] | solubility [2] [µg/mL] | Percent Gcase Activation, 0.1 μM Test Compound ([1]; test compound at 0.1 μM) | Percent Gcase Activation, 1 μM Test Compound [1] | Compound Solubility in Water [2] [µg/mL] | SMILES
> 20 | > 60 | 0.8 (≈ 2.18 µM) | – | – | – | C#CCCCCO[C@H]1CC[C@H](NC(=O)c2ccn3c(C)cc(C)nc23)CC1 [III-208]
10 to 20 | > 60 | 2.3 (≈ 6.68 µM) | – | – | – | Cc1cc(C)n2ccc(C(=O)NC3CCCc4ccc(C#N)cc43)c2n1 (centres unmarked) [III-209]
10 to 20 | > 60 | 3.3 (≈ 10.3 µM) | – | – | – | Cc1cc(C)n2ccc(C(=O)NC3COCc4ccccc43)c2n1 (centres unmarked) [III-210]
10 to 20 | > 60 | 3.8 (≈ 11.8 µM) | – | – | – | Cc1cc(C)n2ccc(C(=O)NC3CCOc4ccccc43)c2n1 (centres unmarked) [III-211]
10 to 20 | > 60 | 13.6 (≈ 38.9 µM) | – | – | – | COC1CCC(NC(=O)c2ccn3c(C)cc(C)nc23)c2ccccc21 (centres unmarked) [III-212]
< 10 | < 30 | 0.7 (≈ 2.19 µM) | – | – | – | C#Cc1ccc(NC(=O)c2ccn3c(C)cc(C)nc23)c(CO)c1 [III-213]
> 20 | > 60 | 0.01 (≈ 0.0273 µM) | – | – | – | Cc1cc(C)n2ccc(C(=O)Nc3ccc(Cl)c(-c4cnco4)c3)c2n1 [III-214]
10 to 20 | > 60 | 0.3 (≈ 0.982 µM) | – | – | – | Cc1cc(C)n2ccc(C(=O)NC3Cc4ccccc4C3)c2n1 [III-215]
> 20 | > 60 | 1.8 (≈ 5.89 µM) | – | – | – | Cc1cc(C)n2ccc(C(=O)NC3CCc4ccccc43)c2n1 (centres unmarked) [III-216]
> 20 | > 60 | 0.2 (≈ 0.655 µM) | – | – | – | Cc1cc(C)n2ccc(C(=O)N[C@H]3CCc4ccccc43)c2n1 [III-217]
> 20 | > 60 | 0.2 (≈ 0.655 µM) | – | – | – | Cc1cc(C)n2ccc(C(=O)N[C@@H]3CCc4ccccc43)c2n1 [III-218]
> 20 | > 60 | 0.9 (≈ 2.44 µM) | – | – | – | Cc1cc(C)n2ccc(C(=O)Nc3ccc(C4=NCCO4)cc3Cl)c2n1 [III-219]
> 20 | > 60 | 0.2 (≈ 0.655 µM) | – | – | – | Cc1cc(C)n2ccc(C(=O)Nc3cccc4c3CCC4)c2n1 [III-220]
< 10 | 30 to 60 | 0.1 (≈ 0.248 µM) | – | – | – | Cc1cc(C)n2ccc(C(=O)Nc3ccc4c(c3)C(Oc3nnc(C)o3)CC4)c2n1 (centres unmarked) [III-221]
< 10 | < 30 | 0.5 (≈ 1.56 µM) | – | – | – | Cc1cc(C)n2ccc(C(=O)Nc3ccc4c(c3)C(O)CC4)c2n1 (centres unmarked) [III-222]
< 10 | < 30 | 3.2 (≈ 8.45 µM) | – | – | – | Cc1cc(C)n2ccc(C(=O)Nc3cnc(-c4ncccn4)c(Cl)c3)c2n1 [III-223]
> 20 | > 60 | 1.5 (≈ 4.42 µM) | – | – | – | Cc1cc(C)n2ccc(C(=O)NC3CCOc4c(F)cccc43)c2n1 (centres unmarked) [III-224]
> 20 | > 60 | 1.8 (≈ 5.3 µM) | – | – | – | Cc1cc(C)n2ccc(C(=O)NC3CCOc4ccc(F)cc43)c2n1 (centres unmarked) [III-225]
> 20 | > 60 | 1.6 (≈ 4.8 µM) | – | – | – | Cc1cc(C)n2ccc(C(=O)NC3CCCCc4ccccc43)c2n1 (centres unmarked) [III-226]
< 10 | < 30 | 15.7 (≈ 49 µM) | – | – | – | Cc1cc(C)n2ccc(C(=O)NC3CCCc4ccncc43)c2n1 (centres unmarked) [III-227]
> 20 | > 60 | 0.9 (≈ 2.82 µM) | – | – | – | Cc1cc(C)n2ccc(C(=O)NC3CCc4ccccc4C3)c2n1 (centres unmarked) [III-228]

activation at 0.1 µM ([1]; test compound at 0.1 μM) [%] | activation at 1 µM [1] [%] | solubility [2] [µg/mL] | Percent Gcase Activation, 0.1 μM Test Compound ([1]; test compound at 0.1 μM) | Percent Gcase Activation, 1 μM Test Compound [1] | Compound Solubility in Water [2] [µg/mL] | SMILES
< 10 | < 30 | 28.5 (≈ 90.4 µM) | – | – | – | Cc1cc(C)n2ccc(C(=O)NC3CCC4OCOC4C3)c2n1 (centres unmarked) [III-229]
< 10 | < 30 | 13.8 (≈ 34.7 µM) | – | – | – | Cc1cc(C)n2ccc(C(=O)NC3CCCc4ccc(S(C)(=O)=O)cc43)c2n1 (centres unmarked) [III-230]
10 to 20 | > 60 | 20.1 (≈ 49.3 µM) | – | – | – | CCOCCOC1CCC(NC(=O)c2ccn3c(C)cc(C)nc23)c2ccccc21 (centres unmarked) [III-231]
< 10 | < 30 | 9.4 (≈ 28.5 µM) | – | – | – | CCOC1(C)CCC(NC(=O)c2ccn3c(C)cc(C)nc23)CC1 (centres unmarked) [III-232]
> 20 | > 60 | 2.1 (≈ 6.22 µM) | – | – | – | COc1ccccc1C(C)(C)NC(=O)c1ccn2c(C)cc(C)nc12 [III-233]
> 20 | > 60 | 1.5 (≈ 4.2 µM) | – | – | – | CCCCCOC1CCCC(NC(=O)c2ccn3c(C)cc(C)nc23)C1 (centres unmarked) [III-234]
< 10 | < 30 | 25.1 (≈ 73.7 µM) | – | – | – | Cc1cc(C)n2ccc(C(=O)NC3CCN(CC(F)(F)F)C3)c2n1 (centres unmarked) [III-235]
10 to 20 | > 60 | 9.9 (≈ 28.8 µM) | – | – | – | CO[C@H]1CC[C@H](C(C)(C)NC(=O)c2ccn3c(C)cc(C)nc23)CC1 [III-236]
10 to 20 | > 60 | 1.6 (≈ 4.66 µM) | – | – | – | CO[C@H]1CC[C@@H](C(C)(C)NC(=O)c2ccn3c(C)cc(C)nc23)CC1 [III-238]
10 to 20 | > 60 | 21.4 (≈ 62.3 µM) | – | – | – | CCCO[C@H]1CC[C@H](CNC(=O)c2ccn3c(C)cc(C)nc23)CC1 [III-240]
10 to 20 | > 60 | 11 (≈ 32 µM) | – | – | – | CC[C@@H](C)O[C@H]1CC[C@H](NC(=O)c2ccn3c(C)cc(C)nc23)CC1 [III-241]
10 to 20 | > 60 | 1.3 (≈ 3.49 µM) | – | – | – | Cc1cc(C)n2ccc(C(=O)NC3Cc4ccc(-c5ncco5)cc4C3)c2n1 (centres unmarked) [III-242]
< 10 | < 30 | 27.7 (≈ 81.9 µM) | – | – | – | Cc1cc(C)n2ccc(C(=O)NC3CCC(c4ncco4)CC3)c2n1 (centres unmarked) [III-245]
– | – | – | * (less than 10% Gcase activation) | + (less than 30% Gcase activation) | 20.3 | Cc1cc(C)n2ccc(C(=O)NC3CCC(c4ncco4)CC3)c2n1 (centres unmarked) [III-246]
< 10 | 30 to 60 | 27.1 (≈ 80.6 µM) | – | – | – | Cc1cc(C)n2ccc(C(=O)NC3CC=C(c4ncco4)CC3)c2n1 (centres unmarked) [III-247]
10 to 20 | > 60 | – | – | – | 28.2 | Cc1cc(C(F)(F)F)nc2c(C(=O)NC3CCC4(CCCCO4)C3)ccn12 (centres unmarked) [III-248]
– | – | – | – | +++ (Gcase activation greater than 60%) | 12.6 | Cc1cc(C(F)(F)F)nc2c(C(=O)NC3CCC4(CCCCO4)C3)ccn12 (centres unmarked) [III-249]
> 20 | > 60 | 0.2 (≈ 0.536 µM) | – | – | – | Cc1cc(C(F)(F)F)nc2c(C(=O)NC3CCCc4ccccc43)ccn12 (centres unmarked) [III-251]
10 to 20 | > 60 | 1.8 (≈ 4.66 µM) | – | – | – | Cc1cc(C(F)(F)F)nc2c(C(=O)Nc3ccc(-c4cocn4)cc3)ccn12 [III-252]
< 10 | 30 to 60 | 0.6 (≈ 1.61 µM) | – | – | – | Cc1cc(C(F)(F)F)n2ccc(C(=O)NC3CCCc4ccccc43)c2n1 (centres unmarked) [III-253]
< 10 | < 30 | 0.6 (≈ 1.55 µM) | – | – | – | Cc1cc(C(F)(F)F)n2ccc(C(=O)Nc3ccc(-c4cocn4)cc3)c2n1 [III-254]
